One may read the melting point as the temperature of the solid-liquid transition.

From patent US7572785B2, “Substituted imidazoles as cannabinoid receptor modulators” (Merck & Co., Inc., priority 2001, dated 2009) come the findings set out here.

Each structure is given as a SMILES string.

`Cn1c(C(=O)NC2CCCCC2)nc(-c2ccc(Cl)cc2Cl)c1-c1ccc(Cl)cc1` came in with a melting point of 165 °C.
